# Test results published in patent publication US4442108A, “Hydrogenated isoquinolines and peripheral vascular disease treating compositions thereof” (Laboratoires Sobio S.A. of Immeuble Perisud, priority 1981, dated 1984).
# Structures can show the parent of a compound that is named as a salt. Where two headings read alike, the source gives them in different places.
# What was measured:
# [1] = test system: dogs anaesthetized with chloralose; test: Cardiovascular activity in anaesthetized dogs; format: in vivo, dog; details: i.v., 1/15 to 1/30 of the mouse i.v. LD50
# Experimental: The following parameters were recorded in dogs anaesthetized with chloralose, and under artificial respiration:
# left ventricular contractile force.
# The compounds tested were injected intravenously in a dose of from (1/15) to (1/30) of the LD50 (i.v.) previoulsy determined in mice.
# [2] = Acute toxicity, LD50 in mice (method of Litchfield and Wilcoxon), intravenous route; details: in vivo
# Experimental: LD50 values in mice for several compounds of the invention were obtained by the method of Litchfield and Wilcoxon (J. Pharmacol. (1949), 96.99) after the administration of the test compound by intravenous route (i.v.) in the mouse (CD, males 18-24 g) in a volume of 0.40 ml/20 g of body weight. The mortality is noted 7 days after administration.
# [3] = test system: isolated ileum of the guinea pig; test: Spasmolytic activity in vitro, barium chloride contraction of isolated ileum; format: cell-based; details: Cavia porcellus, Tyrode liquid, 37° C., barium chloride as contracting agent, product added 30 seconds before, read-out: EC50 (concentration required to cause inhibition of contraction in 50% of the population)
# Experimental: The tests are carried out on isolated ileum of the guinea pig surviving in Tyrode liquid, aerated and maintained at 37° C. The products are added 30 seconds before affusion of barium chloride used as contracting agent. The concentrations required to cause inhibition of contraction in 50% of the population (EC50) was given in table II compared with papaverine.
# [4] = mouse CD males, i.v., 0.40 ml/20 g, mortality noted 7 days after administration, limits p = 0.05 in brackets
# [5] = mouse, read-out: LD50 and limits (p = 0.05)
SMILES,effect on blood pressure (mean aortic pressure) [1],effect on cardiac frequency [1],effect on left ventricular contractile force [1],"LD50 at 168 h [2, 4]",EC50 [3],"LD50 at 168 h [2, 5]"
"COc1ccc(Cc2nccc3cc(OC)c(OC)cc23)cc1OC [papaverine, 1-(3',4'-dimethoxybenzyl)-6,7-dimethoxy isoquinoline, reference compound]",transient hypotension,tachycardia,increase of the ventricular contractile force,,,
"CCCOc1ccc(CC2=NCCc3cc(OCC)c(OCC)cc32)cc1OCCC.Cl [Example 3, 6,7-Diethoxy-1-(3',4'-di-n-propoxybenzyl)-3,4-dihydroisoquinoline hydrochloride]",transient hypotension,,reduction in the amplitude of ventricular contraction,17.5 mg/kg,3.2 µM,
"CCOc1ccc(CC2NCCc3cc(OC(C)C)c(OC(C)C)cc32)cc1OCC.Cl (centres unmarked) [Example 10, 1-(3',4'-Diethoxybenzyl)-6,7-diisopropoxy-1,2,3,4-tetrahydroisoquinoline hydrochloride]",transient hypotension,,reduction in the amplitude of ventricular contraction,19 mg/kg,10 µM,
"CCOc1cc2c(cc1OCC)C(Cc1ccc(OC(C)C)c(OC(C)C)c1)NCC2 (centres unmarked) [Example 11, 6,7-Diethoxy-1-(3',4'-diisopropoxybenzyl)-1,2,3,4-tetrahydroisoquinoline hydrochloride]",,,,22 mg/kg,60 µM,
"CCOc1ccc(CC2=NCCc3cc(OC(C)C)c(OC(C)C)cc32)cc1OCC [Example 2, 1-(3'4'-Diethoxybenzyl)-6,7-diisopropoxy-3,4-dihydroisoquinoline hydrochloride]",transient hypotension,,reduction in the amplitude of ventricular contraction,,4.2 µM,8.2 mg/kg
"COc1ccc(Cc2nccc3cc(OC)c(OC)cc23)cc1OC [Papauerine HCl, reference compound]",,,,,980 µM,
"CCOc1cc2c(cc1OCC)C(Cc1ccc(OC(C)C)c(OC(C)C)c1)=NCC2 [Example 1, 6,7-Diethoxy-1-(3'4'-diisopropoxybenzyl-3,4-dihydroisoquinoline hydrochloride]",transient hypotension,,reduction in the amplitude of ventricular contraction,,11 µM,19 mg/kg
"CCCOc1cc2c(cc1OCCC)C(Cc1ccc(OCC)c(OCC)c1)=NCC2.Cl [Example 4, 1-(3',4'-Diethoxybenzyl)-6,7-di-n-propoxy-3,4-dihydroisoquinoline hydrochloride]",transient hypotension,,reduction in the amplitude of ventricular contraction,13.5 mg/kg,3.7 µM,
